16 compounds from patent publication US11464770B2, “Anticancer pharmaceutical composition” (NATIONAL CANCER CENTER, priority 2016, dated 2022) can be followed below.

By IC50 is commonly meant the concentration that inhibits the measured activity by half.

The assay concerns colorectal cancer cell lines (e.g. DLD-1, HCT 116, SW620, HCT-15, HCT-8, RKO). Put plainly: Cell based assay, cell viability (CellTiter-Glo), colorectal cancer cell lines. As to conditions: Homo sapiens, 72 hours treatment. Summed up:
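Read-out is ATP-dependent luminescence (CellTiter-Glo) taken after 72 h of exposure to compound at final concentrations from 0 to 2 μM. Cells were plated 24 h beforehand.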
A general note: In ATP-based viability assays light output follows the ATP content of the culture.

Setting [1] is: DLD-1 cells, read-out: IC50, colorectal cancer cell line DLD-1.
Setting [2] is: HCT 116 cells, read-out: IC50, colorectal cancer cell line HCT 116.
[3] abbreviates: HCT-8 cells, read-out: IC50, colorectal cancer cell line HCT-8.
Where [4] appears, read: HCT-15 cells, read-out: IC50, colorectal cancer cell line HCT-15.
Setting [5] is: HT-29 cells, read-out: IC50, colorectal cancer cell line HT-29.
Where [6] appears, read: LoVo cells, read-out: IC50, colorectal cancer cell line LoVo.
[7] abbreviates: RKO cells, read-out: IC50, colorectal cancer cell line RKO.
Where [8] appears, read: SW480 cells, read-out: IC50, colorectal cancer cell line SW480.
Where [9] appears, read: SW-620, SW620 cells, read-out: IC50, colorectal cancer cell line SW620.

Like-named read-outs stand apart in the source and are kept apart here.

`COC(=O)c1ccc(C[S+]([O-])c2[nH]c3c(Cl)ccc(Cl)c3c(=O)c2C(C)=O)cc1` (stereo not drawn) [Compound 91, methyl 4-(((3-acetyl-5,8-dichloro-4-oxo-1,4-dihydroquinolin-2-yl)sulfinyl)methyl)benzoate]: the half-maximal inhibitory concentration (IC50) is, setting by setting: under setting [1], 1820 nM; under setting [2], above 2000 nM; under setting [3], above 2000 nM; under setting [4], above 2000 nM; under setting [5], above 10000 nM; under setting [6], above 2000 nM. The IC50 is 1410 nM under setting [7], above 2000 nM under setting [8] and above 2000 nM under setting [9].
As to `COc1cccc2[nH]c(SCc3ccc(S(F)(F)(F)(F)F)cc3)c(C(C)=O)c(=O)c12` [Compound 92, 3-acetyl-5-methoxy-2-((4-(pentafluoro--sulfanyl)benzyl)thio)quinolin-4(1H)-one], the half-maximal inhibitory concentration (IC50) under setting [1] is above 2000 nM; the IC50 under setting [2] was above 2000 nM; the 50% inhibitory concentration (IC50) under setting [3] is above 2000 nM; the IC50 under setting [4] is above 2000 nM; the half-maximal inhibitory concentration (IC50) under setting [5] was above 10000 nM; the IC50 under setting [6] is above 2000 nM. For the same compound, the 50% inhibitory concentration (IC50) reads like this: under setting [7], above 2000 nM; under setting [8], above 2000 nM; under setting [9], above 2000 nM.
Regarding `COc1cccc2[nH]c([S+]([O-])Cc3ccc(S(F)(F)(F)(F)F)cc3)c(C(C)=O)c(=O)c12` (stereo not drawn) [Compound 93, 3-acetyl-5-methoxy-2-((4-(pentafluoro--sulfanyl)benzyl)sulfinyl)quinolin-4(1H)-one], the IC50 is above 2000 nM under setting [1]; above 2000 nM under setting [2]; above 2000 nM under setting [3]; above 2000 nM under setting [4]; above 10000 nM under setting [5]; above 2000 nM under setting [6]. The half-maximal inhibitory concentration (IC50) is, setting by setting: under setting [7], above 2000 nM; under setting [8], above 2000 nM; under setting [9], above 2000 nM.
`COc1cccc2[nH]c([S+]([O-])Cc3cc(C)on3)c(C(C)=O)c(=O)c12` (stereo not drawn) [Compound 94, 3-acetyl-5-methoxy-2-(((5-methylisoxazol-3-yl)methyl)sulfinyl)quinolin-4(1H)-one]: the half-inhibitory concentration (IC50) under setting [1] was above 2000 nM; the IC50 under setting [2] was above 2000 nM; the IC50 under setting [3] is above 2000 nM; the IC50 under setting [4] was above 2000 nM; the IC50 under setting [5] is above 10000 nM; the IC50 under setting [6] was above 2000 nM. The IC50 reads like this: under setting [7], above 2000 nM; under setting [8], above 2000 nM; under setting [9], above 2000 nM.
Turning to `Cc1cc(C[S+]([O-])c2[nH]c3c(Br)ccc(Cl)c3c(=O)c2C(=O)C2CC2)no1` (stereo not drawn) [Compound 96, 8-bromo-5-chloro-3-(cyclopropanecarbonyl)-2-(((5-methylisoxazol-3-yl)methyl)sulfinyl)quinolin-4(1H)-one], the IC50 by setting is: under setting [1], 1820 nM; under setting [2], 1530 nM; under setting [3], above 2000 nM; under setting [4], 1870 nM; under setting [5], above 10000 nM; under setting [6], above 2000 nM. Moreover, the IC50 under setting [7] is 1580 nM, the IC50 under setting [8] is above 2000 nM and the half-inhibitory concentration (IC50) under setting [9] stood at 1660 nM.
For `Cc1cc(C[S+]([O-])c2[nH]c3c(Cl)ccc(Cl)c3c(=O)c2C(=O)C2CC2)no1` (stereo not drawn) [Compound 97, 5,8-dichloro-3-(cyclopropanecarbonyl)-2-(((5-methylisoxazol-3-yl)methyl)sulfinyl)quinolin-4(1H)-one], the IC50 reads like this: under setting [1], 1360 nM; under setting [2], 1250 nM; under setting [3], 1350 nM; under setting [4], 1420 nM; under setting [5], above 10000 nM; under setting [6], 1520 nM. The IC50 under setting [7] amounted to 1270 nM, the half-inhibitory concentration (IC50) under setting [8] was 1690 nM and the IC50 under setting [9] came out at 1100 nM.
Regarding `CC(=O)c1c([S+]([O-])Cc2ccc(C#N)s2)[nH]c2c(Br)ccc(Cl)c2c1=O` (stereo not drawn) [Compound 98, 5-(((3-acetyl-8-bromo-5-chloro-4-oxo-1,4-dihydroquinolin-2-yl)sulfinyl)methyl)thiophene-2-carbonitrile], the IC50 is 1520 nM under setting [1]; 1480 nM under setting [2]; 1660 nM under setting [3]; 1730 nM under setting [4]; above 10000 nM under setting [5]; above 2000 nM under setting [6]. Further, the IC50 runs as follows: under setting [7], 1340 nM; under setting [8], above 2000 nM; under setting [9], 1760 nM.
As to `CC(=O)c1c([S+]([O-])Cc2ccc(-n3cccn3)nc2)[nH]c2c(Br)ccc(Cl)c2c1=O` (stereo not drawn) [Compound 99, 2-(((6-(1H-pyrazol-1-yl)pyridin-3-yl)methyl)sulfinyl)-3-acetyl-8-bromo-5-chloroquinolin-4(1H)-one], the half-inhibitory concentration (IC50) is, setting by setting: under setting [1], 870 nM; under setting [2], 820 nM; under setting [3], 980 nM; under setting [4], 970 nM; under setting [5], above 10000 nM; under setting [6], 1450 nM. Also, the IC50 is 950 nM under setting [7], 1300 nM under setting [8] and 920 nM under setting [9].
Regarding `CC(=O)c1c([S+]([O-])Cc2ccc(N)nc2)[nH]c2c(Br)ccc(Cl)c2c1=O` (stereo not drawn) [Compound 100, 3-acetyl-2-(((6-aminopyridin-3-yl)methyl)sulfinyl)-8-bromo-5-chloroquinolin-4(1H)-one], the half-maximal inhibitory concentration (IC50) runs as follows: under setting [1], above 2000 nM; under setting [2], above 2000 nM; under setting [3], above 2000 nM; under setting [4], above 2000 nM; under setting [5], above 10000 nM; under setting [6], above 2000 nM. In addition, the IC50 runs as follows: under setting [7], above 2000 nM; under setting [8], above 2000 nM; under setting [9], above 2000 nM.
As for `O=C(c1c([S+]([O-])Cc2ccc(SC(F)(F)F)cc2)[nH]c2c(Br)ccc(Cl)c2c1=O)C1CC1` (stereo not drawn) [Compound 101, 8-bromo-5-chloro-3-(cyclopropanecarbonyl)-2-((4-((trifluoromethyl)thio)benzyl)sulfinyl)quinolin-4(1H)-one], the IC50 reads like this: under setting [1], above 2000 nM; under setting [2], 1740 nM; under setting [3], 1610 nM; under setting [4], above 2000 nM; under setting [5], above 10000 nM; under setting [6], above 2000 nM. For the same compound, the IC50 by setting is: under setting [7], 1910 nM; under setting [8], above 2000 nM; under setting [9], above 2000 nM.
Consider `CC(=O)c1c([S+]([O-])Cc2ccc(C(F)(F)F)nc2C)[nH]c2c(Br)ccc(Cl)c2c1=O` (stereo not drawn) [Compound 102, 3-acetyl-8-bromo-5-chloro-2-(((2-methyl-6-(trifluoromethyl)pyridin-3-yl)methyl)sulfinyl)quinolin-4(1H)-one], for which the half-inhibitory concentration (IC50) under setting [1] turned out to be 1160 nM; the IC50 under setting [2] was 1220 nM; the IC50 under setting [3] was determined as 1240 nM; the half-maximal inhibitory concentration (IC50) under setting [4] was found to be 1330 nM; the 50% inhibitory concentration (IC50) under setting [5] was above 10000 nM; the IC50 under setting [6] stood at 1940 nM. Also, the IC50 runs as follows: under setting [7], 1190 nM; under setting [8], 1600 nM; under setting [9], 1220 nM.
On to `CC(=O)c1c([S+]([O-])Cc2ccc(NS(C)(=O)=O)cc2)[nH]c2c(Br)ccc(Cl)c2c1=O` (stereo not drawn) [Compound 103, N-(4-(((3-acetyl-8-bromo-5-chloro-4-oxo-1,4-dihydroquinolin-2-yl)sulfinyl)methyl)phenyl)methane-sulfonamide], for which the half-inhibitory concentration (IC50) runs as follows: under setting [1], above 2000 nM; under setting [2], above 2000 nM; under setting [3], above 2000 nM; under setting [4], above 2000 nM; under setting [5], above 10000 nM; under setting [6], above 2000 nM. Also, the IC50 reads like this: under setting [7], above 2000 nM; under setting [8], above 2000 nM; under setting [9], above 2000 nM.
Take `CC(=O)c1c([S+]([O-])Cc2ccc(Cl)nc2)[nH]c2c(Br)ccc(Cl)c2c1=O` (stereo not drawn) [Compound 104, 3-acetyl-8-bromo-5-chloro-2-(((6-chloropyridin-3-yl)methyl)sulfinyl)quinolin-4(1H)-one]: the half-inhibitory concentration (IC50) is, setting by setting: under setting [1], 1240 nM; under setting [2], 1320 nM; under setting [3], 1290 nM; under setting [4], 1490 nM; under setting [5], above 10000 nM; under setting [6], above 2000 nM. Besides, the IC50 was 1150 nM under setting [7], 1580 nM under setting [8] and 1360 nM under setting [9].
As for `COCCNc1ccc(C[S+]([O-])c2[nH]c3c(Br)ccc(Cl)c3c(=O)c2C(C)=O)cn1` (stereo not drawn) [Compound 105, 3-acetyl-8-bromo-5-chloro-2-(((6-((2-methoxyethyl)amino)pyridin-3-yl)methyl)sulfinyl)quinolin-4(1H)-one], the IC50 is, setting by setting: under setting [1], above 2000 nM; under setting [2], above 2000 nM; under setting [3], above 2000 nM; under setting [4], above 2000 nM; under setting [5], above 10000 nM; under setting [6], above 2000 nM. Also, the IC50 is above 2000 nM under setting [7], above 2000 nM under setting [8] and above 2000 nM under setting [9].
With `CC(=O)c1c([S+]([O-])Cc2nonc2C)[nH]c2c(Br)ccc(Cl)c2c1=O` (stereo not drawn) [Compound 106, 3-acetyl-8-bromo-5-chloro-2-(((4-methyl-1,2,5-oxadiazol-3-yl)methyl)sulfinyl)quinolin-4(1H)-one], the IC50 reads like this: under setting [1], above 2000 nM; under setting [2], above 2000 nM; under setting [3], above 2000 nM; under setting [4], above 2000 nM; under setting [5], above 10000 nM; under setting [6], above 2000 nM. For the same compound, the IC50 is, setting by setting: under setting [7], above 2000 nM; under setting [8], above 2000 nM; under setting [9], above 2000 nM.
In the case of `CC(=O)c1c([S+]([O-])Cc2cnc3[nH]ccc3c2)[nH]c2c(Br)ccc(Cl)c2c1=O` (stereo not drawn) [Compound 107, 2-(((1H-pyrrolo[2,3-b]pyridin-5-yl)methyl)sulfinyl)-3-acetyl-8-bromo-5-chloroquinolin-4(1H)-one], the concentration for half-maximal inhibition (IC50) is, setting by setting: under setting [1], above 2000 nM; under setting [2], above 2000 nM; under setting [3], above 2000 nM; under setting [4], above 2000 nM; under setting [5], above 10000 nM; under setting [6], above 2000 nM. Moreover, the IC50 runs as follows: under setting [7], above 2000 nM; under setting [8], above 2000 nM; under setting [9], above 2000 nM.
